Laboratory results reported in PMC4760439, “Glicentin‐related pancreatic polypeptide inhibits glucose‐stimulated insulin secretion from the isolated pancreas of adult male rats” (Physiological Reports, 2015).
“Also recorded” adds a separate entry of the source. Positions of bridges follow the written chain, without caps; N, C: chain ends. No end group written: not given here.

Tests used:
[1] = molecular target: T1, human glucagon receptor (hGL‐R) (Homo sapiens, UniProt P47871); assay: cAMP stimulation in transfected Cos 7 cells, hGL‐R; type: cell-based; settings: for Stimulation of cAMP production at hGL‐R: Cos 7, 37°C, 10 min, ALPHA‐screen
T1 construct: expressed in transfected cells; host or cells: Cos 7 cells
T1 sequence (P47871 26-477): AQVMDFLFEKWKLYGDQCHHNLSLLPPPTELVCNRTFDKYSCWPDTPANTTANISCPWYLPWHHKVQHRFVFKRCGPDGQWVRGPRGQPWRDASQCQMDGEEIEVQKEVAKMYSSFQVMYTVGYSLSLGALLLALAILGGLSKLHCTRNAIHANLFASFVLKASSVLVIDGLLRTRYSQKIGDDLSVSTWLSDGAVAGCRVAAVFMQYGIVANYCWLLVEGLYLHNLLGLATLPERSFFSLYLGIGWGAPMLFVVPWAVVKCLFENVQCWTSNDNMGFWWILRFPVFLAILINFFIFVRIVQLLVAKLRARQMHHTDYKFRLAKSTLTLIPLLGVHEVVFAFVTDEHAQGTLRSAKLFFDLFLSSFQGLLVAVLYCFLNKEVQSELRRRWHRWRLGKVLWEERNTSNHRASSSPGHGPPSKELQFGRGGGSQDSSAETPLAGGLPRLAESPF
Procedure: (§1) Transfection of Cos 7 cells
(§2) Cos 7 cells were maintained and subcultured as previously described (Bailey and Hay 2006) and plated at a density of 15,000 cells per well into 96‐well plates 1 day prior to transfection. […] Cyclic AMP assays were performed 48 h after transfection (Bailey and Hay 2006). The human GRPP was obtained from Bachem (Bubendorf, Switzerland).
(§3) Cyclic AMP stimulation of transfected Cos 7 cells
(§4) Transfected cells were serum‐deprived in DMEM containing 1 mmol L^−1 IBMX and 0.1% (w/v) bovine serum albumin (BSA) for 30 min. […] Plates were incubated at 37°C for 10 min. […] Media were then aspirated from the wells and reactions terminated by addition of ice‐cold absolute ethanol. Ethanol was then evaporated to dryness and cell extracts re‐suspended in 45 μL cAMP assay buffer: cAMP concentrations were determined using ALPHA‐screen assay kits (Perkin Elmer, Massachusetts) as previously described (Gingell et al. 2010).
Maximum pancreatic first‐phase insulin secretion in the presence of hormone infusion was contrasted with corresponding control values by unpaired Welch's t‐tests for preplanned comparisons, to allow for unequal variance between groups. Linear mixed‐effects models were fitted by restricted maximum likelihood (LME‐REML) to data obtained from each indicated phase of isolated perfused–organs studies, using S‐PLUS version 8.2 (TIBCO, Spotfire). Calculated P‐values <0.05 are presented in the article and reflect the likelihood ratio between two models, the effect in question (treatment, time, or treatment:time) against the model without the effect in question. Insulin secreted from isolated islets was expressed as a percentage of insulin content and compared using one‐way ANOVA (GraphPad Prism version 6.0: GraphPad Software Inc., San Diego, CA). […]

isolated rat islets = assay: Insulin secretion from isolated rat islets (static incubation); type: cell-based; settings: hGRPP 1, 10, and 100 nmol L^−1, 1 h, 8 to 9 incubations of 10 islets/well, three experiments, ELISA
Text: (§5) Maximum pancreatic first‐phase insulin secretion in the presence of hormone infusion was contrasted with corresponding control values by unpaired Welch's t‐tests for preplanned comparisons, to allow for unequal variance between groups. Linear mixed‐effects models were fitted by restricted maximum likelihood (LME‐REML) to data obtained from each indicated phase of isolated perfused–organs studies, using S‐PLUS version 8.2 (TIBCO, Spotfire). Calculated P‐values <0.05 are presented in the article and reflect the likelihood ratio between two models, the effect in question (treatment, time, or treatment:time) against the model without the effect in question. Insulin secreted from isolated islets was expressed as a percentage of insulin content and compared using one‐way ANOVA (GraphPad Prism version 6.0: GraphPad Software Inc., San Diego, CA). Cyclic AMP data have been normalized to the response obtained to forskolin and fitted to obtain concentration–response curves using a three‐parameter logistic equation (GraphPad Prism version 6.0: GraphPad Software Inc., San Diego, CA): pEC50 values were obtained from the concentration–response curves and compared using one‐way ANOVA. All data are presented as mean ± SEM of three to four independent experiments.

canine pancreas = settings: local circulation preparation of the canine pancreas; ref Ohneda and Ohneda 1988; cited from earlier work
Text: However, we know of only one study reporting the effects of GRPP on GSIS. […] The precise experimental conditions such as amount of glucose and experimental model used may have influences on the different outcomes; however, the reason for the opposing actions of GRPP between these ...

hGL‐R with RAMP2 = assay: cAMP stimulation in Cos 7 cells transfected with hGL‐R and RAMP2; type: cell-based, human; settings: preliminary experiment; data not shown
Procedure: as §3, §4

[2] = molecular target: T2, human GLP‐1 receptor (hGLP‐1R) (Homo sapiens, UniProt P43220); assay: cAMP stimulation in transfected Cos 7 cells, hGLP‐1R; type: cell-based; settings: Cos 7, 37°C, 10 min, ALPHA‐screen
T2 construct: expressed in transfected cells; host or cells: Cos 7 cells
T2 sequence (P43220 24-463): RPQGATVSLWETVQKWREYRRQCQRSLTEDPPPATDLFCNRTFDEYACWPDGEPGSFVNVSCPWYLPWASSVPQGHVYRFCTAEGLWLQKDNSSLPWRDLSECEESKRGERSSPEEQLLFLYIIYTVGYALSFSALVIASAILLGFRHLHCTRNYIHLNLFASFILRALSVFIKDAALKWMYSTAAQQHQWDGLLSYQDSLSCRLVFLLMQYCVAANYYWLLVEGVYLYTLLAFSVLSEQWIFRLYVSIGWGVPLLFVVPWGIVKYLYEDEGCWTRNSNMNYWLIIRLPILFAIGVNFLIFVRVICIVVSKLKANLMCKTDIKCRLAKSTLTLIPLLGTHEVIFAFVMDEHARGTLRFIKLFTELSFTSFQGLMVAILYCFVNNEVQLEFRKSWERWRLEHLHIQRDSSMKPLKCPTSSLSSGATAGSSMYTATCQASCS
Procedure: as §1, §2, §3, §4
(§6) Maximum pancreatic first‐phase insulin secretion in the presence of hormone infusion was contrasted with corresponding control values by unpaired Welch's t‐tests for preplanned comparisons, to allow for unequal variance between groups. […] Calculated P‐values <0.05 are presented in the article and reflect the likelihood ratio between two models, the effect in question (treatment, time, or treatment:time) against the model without the effect in question. […]

[3] = molecular target: T2, human GLP‐1 receptor (hGLP‐1R); assay: Antagonism of GLP‐1 7–36‐stimulated cAMP production, hGLP‐1R; type: cell-based; settings: peptide preincubated 5 min
Procedure: as §1, §2, §3, §4, §6

perfused rat liver = assay: Isolated perfused rat liver: glucose output, lactate output, portal pressure; design: species or system Male Sprague‐Dawley rat; settings: 2.3 or 230 pmol g^−1 min^−1 (n = 5 and n = 3), epinephrine 100 pmol g^−1 min^−1, 30–60 min; for Glucose output, epinephrine‐stimulated (effect of peptide vs control): 37°C
Procedure: (§7) All studies were performed under approval of the University of Auckland Animal Ethics Committee and were consistent with the ARRIVE guidelines (Kilkenny et al. 2012). Male Sprague‐Dawley rats (220–300 g) were obtained from a breeding colony in the Integrated Physiology Unit, School of Biological Sciences at the University of Auckland. Animals were housed in standard environmental conditions under a 12‐hour light/dark cycle and a temperature of 20 ± 1°C. They were maintained on Teklad TB 2018 (Harlan, UK) rat chow and tap water ad libitum.
Under general anesthesia (isoflurane 2–5%; 2 L min^−1 O2 via nasal cone), nonfasted rats underwent laparotomy between 8:00 and 9:00 AM on the experimental day. The liver was removed and quickly connected to a custom‐made, temperature‐controlled, organ perfusion system, whereby it was perfused (in nonrecirculating mode) in a manner similar to that reported previously (Englisch et al. 2000; Whiting et al. 2013). Livers were perfused at a rate of 2 mL g^−1 min^−1 with perfusion media containing final concentrations (in mmol L^−1): NaCl, 128; NaHCO3, 23.9; KCl, 6.0; CaCl2, 2.4; MgSO4, 1.18; D‐glucose, 5; 3‐(‐N‐morpholino)propane sulfonate, 1.29; with fatty‐acid‐free BSA, 0.5% (w/v) at pH 7.4 gassed with O2:CO2 95:5% (v/v) at 37°C. Each liver was stabilized for 40 min: thereafter, hormone‐containing solutions or vehicle (buffer only) was delivered via a side‐arm infusion. Hormones were also investigated with regard to their ability to attenuate epinephrine‐stimulated hepatic glucose output (Epinephrine, Sigma‐Aldrich, St. Louis, MO). Epinephrine was added 30 min after the addition of hormones was commenced.
(§8) Measurement of organ perfusion parameters
(§9) Glucose and lactate concentrations were measured in both organ preparations using a YSI2300 Stat glucose and lactate analyzer (Yellow Springs, Ohio). Portal pressure was measured in isolated‐perfused liver preparations in mmH2O via a T‐tube located 10 cm upstream from the preparation.
as §5
Figure 2 Effect of rGRPP and rGRPP‐LP on glucose output, lactate output, and portal pressure in the isolated perfused rat liver. Livers from Sprague‐Dawley rats were isolated and perfused with rGRPP (left panels: 2.3 or 230 pmol g^−1 min^−1, n = 5 and n = 3, respectively), rGRPP‐LP (right panels: 2.3 or 230 pmol g^−1 min^−1, n = 5 and n = 3), or vehicle (all panels: control, n = 5). Livers were perfused with hormones or vehicle from 0 to 60 min with 0–30 min as the basal period.

[4] = molecular target: T1, human glucagon receptor (hGL‐R); assay: Antagonism of glucagon‐stimulated cAMP production, hGL‐R; type: cell-based; settings: peptide preincubated 5 min
Procedure: as §1, §2, §3, §4, §6

[5] = test system: isolated perfused rat pancreas; assay: Isolated perfused rat pancreas: insulin secretion (GSIS), lactate; design: species or system Male Sprague‐Dawley rat; settings: for Insulin secretion at 5 mmol L^−1 glucose (vs control): first 20 min; for Insulin secretion at 5 mmol L^−1 glucose (vs control) / Glucose‐stimulated insulin secretion (GSIS) at 20 mmol L^−1 glucose (vs control): rGRPP and rGRPP‐LP 3 or 30 pmol min^−1, hGLP‐1 7–36 30 pmol min^−1, n = 5/group, insulin by ELISA, 37°C; for Glucose‐stimulated insulin secretion (GSIS) at 20 mmol L^−1 glucose (vs control): 20–40 min; for Glucose‐stimulated insulin secretion (GSIS) at 20 mmol L^−1 glucose (vs control) / First phase of GSIS (vs control) / Second phase of GSIS (vs control): 20 mmol L^−1 glucose; for First phase of GSIS (vs control): t = 22 min; for Second phase of GSIS (vs control): t = 26 min to t = 40
Procedure: as §7
Isolated pancreas perfusion
General aspects of the preparation for the isolated pancreas perfusions were the same as those for the liver perfusion studies (above). Particular aspects of the preparation for the pancreas perfusion studies were as follows. After laparotomy, the pancreas and duodenum were removed en bloc and perfused (in nonrecirculating mode) consistent with our previous report (Buchanan et al. 2001). Each pancreatic preparation was quickly connected to the custom‐made, temperature‐controlled, organ perfusion system and perfused at 3 mL min^−1 with oxygenated perfusion buffer (containing at final concentrations in mmol L^−1): NaCl, 112; NaHCO3, 29.3; KCl, 4.4; CaCl2, 2.4; MgSO4, 1.2; D‐glucose, 5.0; with BSA, 0.5% (w/v), Dextran 4% (w/v) at pH 7.4 gassed with O2:CO2 95:5% (v/v) at 37°C. […] Each pancreas was stabilized for 30 min before hormones or vehicle (buffer only) was delivered via a side‐arm infusion.
as §8, §9, §5
Figure 3 Effects of proglucagon products on insulin secretion in the isolated‐perfused rat pancreas.

[6] = test system: plasma insulin and glucagon; settings: infusion in humans; ref Skamene and Patel 1984; cited from earlier work
Text: (§10) GRPP and GRPP‐LP may inhibit insulin secretion indirectly, perhaps by influencing other islet‐derived hormones known to modulate hormone secretion from the β‐cell.

[7] = test system: isolated‐perfused rat pancreas, perifused rat islets, and cultured islets; settings: ref Norfleet et al. 1975, Fujimoto 1981, Bolaffi et al. 1990; cited from earlier work
Text: as §10

| Substance | Stimulation of cAMP production at hGL‐R alone ([1]; preliminary experiment, hGL‐R with vector, data not shown) | Basal insulin secretion from islets (vs control) (isolated rat islets; 2.8 mmol L^−1 glucose) | Glucose‐stimulated insulin secretion from islets (vs control) (isolated rat islets; 16.7 mmol L^−1 glucose) | Plasma insulin and glucagon, canine pancreas (canine pancreas) | Stimulation of cAMP production at hGL‐R in the presence of RAMP2 (hGL‐R with RAMP2) | Stimulation of cAMP production at hGLP‐1R [2] | Stimulation of cAMP production at hGL‐R [1] | Antagonism of GLP‐1‐stimulated cAMP production [3] | Lactate output (effect of peptide vs control) (perfused rat liver) | Portal pressure (effect of peptide vs control) (perfused rat liver) | Glucose output, epinephrine‐stimulated (effect of peptide vs control) (perfused rat liver) | Antagonism of glucagon‐stimulated cAMP production [4] | Insulin secretion at 5 mmol L^−1 glucose (vs control) [5] | Glucose‐stimulated insulin secretion (GSIS) at 20 mmol L^−1 glucose (vs control) [5] | First phase of GSIS (vs control) [5] | Second phase of GSIS (vs control) [5] | Glucose output, epinephrine‐stimulated (effect of peptide vs control) (perfused rat liver; listed as GRPP‐LP) | Arginine‐stimulated plasma insulin and glucagon levels [6] | GSIS and arginine‐stimulated glucagon secretion [7] |
| --- | --- | --- | --- | --- | --- | --- | --- | --- | --- | --- | --- | --- | --- | --- | --- | --- | --- | --- | --- |
| RSLQDTEEKSRSFSASQADPLSDPDQMNED [hGRPP, human glicentin‐related pancreatic polypeptide, The human GRPP was obtained from Bachem] | did not stimulate cAMP production at hGL‐R alone | did not affect insulin secretion; also recorded: did not affect basal or stimulated insulin compared with untreated islets | did not affect insulin secretion; also recorded: did not affect basal or stimulated insulin compared with untreated islets | slight increases in plasma insulin and decreases in plasma glucagon | did not stimulate cAMP production at hGL‐R alone or in the presence of RAMP2 | – | – | – | – | – | – | – | – | – | – | – | – | – | – |
| HAPQDTEENARSFPASQTEPLEDPDQINED [rGRPP, rat glicentin‐related pancreatic polypeptide, 30 amino acid Gcg‐derived peptide, synthesized by Fmoc solid‐phase peptide synthesis] | – | – | – | – | – | neither rGRPP nor rGRPP‐LP stimulated cAMP production at either receptor | neither rGRPP nor rGRPP‐LP stimulated cAMP production at either receptor | nor did they antagonize glucagon‐ or GLP‐1‐stimulated cAMP‐production at either receptor; also recorded: no shifts in the GLP‐1 7–36 or glucagon concentration–response curves | Neither dose of rGRPP nor rGRPP‐LP modified these parameters compared with control values | Neither dose of rGRPP nor rGRPP‐LP modified these parameters compared with control values | not modified by rGRPP or GRPP‐LP; also recorded: Neither dose of rGRPP nor rGRPP‐LP modified these parameters compared with control values | nor did they antagonize glucagon‐ or GLP‐1‐stimulated cAMP‐production at either receptor; also recorded: no shifts in the GLP‐1 7–36 or glucagon concentration–response curves | No significant difference in insulin secretion | potent inhibition of glucose‐stimulated insulin secretion (GSIS) from the rat pancreas; also recorded: inhibited GSIS | inhibited the initial first phase of GSIS in the isolated rat pancreas | ongoing suppression of insulin secretion throughout the second phase | – | – | – |
| HAPQDTEENARSFPASQTEPLEDPNQINE [rGRPP‐LP, rat GRPP‐like peptide] | – | – | – | – | – | neither rGRPP nor rGRPP‐LP stimulated cAMP production at either receptor | neither rGRPP nor rGRPP‐LP stimulated cAMP production at either receptor | nor did they antagonize glucagon‐ or GLP‐1‐stimulated cAMP‐production at either receptor | Neither dose of rGRPP nor rGRPP‐LP modified these parameters compared with control values | Neither dose of rGRPP nor rGRPP‐LP modified these parameters compared with control values | Neither dose of rGRPP nor rGRPP‐LP modified these parameters compared with control values | nor did they antagonize glucagon‐ or GLP‐1‐stimulated cAMP‐production at either receptor | No significant difference in insulin secretion | potent inhibition of glucose‐stimulated insulin secretion (GSIS) from the rat pancreas; also recorded: inhibited GSIS | inhibited the initial first phase of GSIS in the isolated rat pancreas | ongoing suppression of insulin secretion throughout the second phase | not modified by rGRPP or GRPP‐LP | – | – |
| somatostatin (AGCKNFFWKTFTSC; disulfide 3-14; ends not checked; UniProt P61278 103-116, looked up) [SST] | – | – | – | – | – | – | – | – | – | – | – | – | – | – | – | – | – | decreased arginine‐stimulated plasma insulin and glucagon levels in a dose‐dependent manner | inhibits GSIS as well as arginine‐stimulated glucagon secretion |
